Source: patent US6486190B1, “5-(2-imidazolinylamino)-benzimidazole derivatives, their preparation and their use as α-adrenoceptor agonists with improved metabolic stability” (The Procter & Gamble Company, priority 1997, dated 2002)
Where two headings read alike, the source gives them in different places.

Columns and labels:
[1] = precision cut liver slice assay (metabolic stability, N-methylation); format: in vitro ADME; conditions: for metabolic N-methylation (N-methyl metabolites): in these assays: precision cut liver slice assay and pharmacokinetic studies in primates
Protocol: Metabolic stability of the compounds described above is evaluated in vitro in a precision cut liver slice assay and in vivo in pharmacokinetic studies in primates. The precision cut liver slice assay is a well recognized, validated in vitro model to study xenobiotic metabolism in animal species and humans. (See Ekins, S. “Past, present, and future applications of precision-cut liver slices for in vitro xenobiotic metabolism.” (Department of Medicine and Therapeutics, University of Aberdeen, UK.) Drug-Metab-Rev. (November, 1996) Vol. 28, No. 4: pp. 591-623). […] The assay provides data on the biotransformations taking place within intact hepatocytes of the species of interest. Thus the full compliment of phase I and phase II metabolic enzymes are available to metabolize the drug as is the case in vivo.

central nervous system = central nervous system activity (locomotor activity as an index of sedation); set-up: species or system rodents; conditions: in vivo
Protocol: (§1) The pharmacological activity and selectivity of these compounds can be determined using published test procedures. […] (See, e.g., The Alpha-2 Adrenergic Receptors, L. E. Limbird, ed., Humana Press, Clifton, N.J.) The following in vivo assays are typically conducted in rodents or other species. Central nervous system activity is determined by measuring locomotor activity as an index of sedation. (See, e.g., Spyraki, C. & H. Fibiger, “Clonidine-induced Sedation in Rats: Evidence for Mediation by Postsynaptic Alpha-2 Adrenoreceptors”, Journal of Neural Transmission, Vol. 54 (1982), pp. 153-163). Nasal decongestant activity is measured using rhinomanometry as an estimate of nasal airway resistance. […] Antiglaucoma activity is determined by measuring intraocular pressure. […] Antidiarrheal activity is determined by measuring the ability of the compounds to inhibit prostaglandin-induced diarrhea. […] Efficacy in treating irritable bowel syndrome is determined by measuring the ability of compounds to reduce the stress-induced increase in fecal output. […] Antiasthma activity is determined by measuring the effect of the compound on bronchoconstriction associated with pulmonary challenges such as inhaled antigens. […] Activity in cough is determined by measuring the number and latency of the cough response to respiratory challenges such as inhaled citric acid. […]

alpha-2 adrenoceptors = assay: alpha-2 adrenergic activity and selectivity (receptor binding affinities and in vitro functional potencies); format: biochemical
Protocol: as §1

[2] = pharmacokinetic studies in primates: parent and N-methyl metabolite in urine after oral dosing; format: in vivo, cynomolgus monkeys
Protocol: For the pharmacokinetic studies, the compounds are administered orally to cynomolgus monkeys and measurements of administered benzimidazole compounds and corresponding N-methyl metabolites are made using 100 μL aliquots of urine collected over various time-periods post-dose. Typically, a chemical homolog or stable-isotope-labeled internal standard is added to each sample and then diluted 100× in water. Ten μL of prepared sample is then analyzed by gradient HPLC, with tandem mass spectrometry detection. Single ion reaction monitoring schemes are employed to selectively detect the test compound, its N-methyl metabolite (if present), and the internal standard.

Compound: Cc1c(N=C2NCCN2)cc(C#N)c2[nH]cnc12 [Example 1, 7-Cyano-5-(2-imidazolinylamino)-4-methylbenzimidazole]
- metabolism / methyl metabolite formation [1]: no evidence of the methyl metabolite
- CNS activity (central nervous system): very low CNS activity

Compound: Cc1c(NC2=NCCN2)ccc2[nH]cnc12 [5-(2-Imidazolinylamino)-4-methylbenzimidazole]
- metabolic N-methylation (N-methyl metabolites) [1]: N-methyl metabolites were found
- metabolism / methyl metabolite formation ([1]; precision cut liver slice assay): rapidly metabolized
- alpha-2 adrenergic activity (pharmacological profile) (alpha-2 adrenoceptors): very potent and selective alpha-2 adrenergic agonists
- CNS activity (central nervous system): very low CNS activity

Compound: CCc1c(NC2=NCCN2)ccc2[nH]cnc12 [4-ethyl-5-(2-imidazolinylamino)benzimidazole]
- metabolic N-methylation (N-methyl metabolites) [1]: N-methyl metabolites were found
- N-methylation in primates [2]: rapidly and extensively N-methylated
- alpha-2 adrenergic activity (pharmacological profile) (alpha-2 adrenoceptors): selective alpha-2 adrenergic agonist
